Experimental data reported in patent US12077503B2, “Substituted cyclic amides and their use as herbicides” (FMC CORPORATION, priority 2015, dated 2024).

Key:
Assay type in all cases: in vivo
[1] = system: barnyardgrass (Echinochloa crus-galli); assay: Test G Pre-Emergence Protocol; details: Echinochloa crus-galli, pre-emergence, 312 h, evaluated after 13 days; for pest or weed control at 15.625 g/ha: 15.625 g ai/ha; for pest or weed control at 15.625 g/ha / pest or weed control at 250 g/ha: read-out: Barnyardgrass damage rating (100=total damage to plant; 0=no damage to plant); for pest or weed control at 62.5 g/ha: 62.5 g ai/ha, 100=total damage to plant, 0=no damage to plant, read-out: Barnyardgrass damage rating; for pest or weed control at 250 g/ha: 250 g ai/ha
How it was run: (§1)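 Glasshouse pre-emergence test: soil-sown seeds, sprayed after 1 d at 15.625, 62.5 or 250 g/ha. Conditions 24/16° C day/night, 14 h light, 65% humidity, watering twice daily. Rating 13 d post-spray (100 = total damage).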

[2] = system: corn (Zea mays); assay: Test G Pre-Emergence Protocol; details: Zea mays, pre-emergence, 312 h, evaluated after 13 days; for plant injury at 15.625 g/ha: 15.625 g ai/ha; for plant injury at 15.625 g/ha / plant injury at 250 g/ha: read-out: Corn damage rating (100=total damage to plant; 0=no damage to plant); for plant injury at 62.5 g/ha: 62.5 g ai/ha, 100=total damage to plant, 0=no damage to plant, read-out: Corn damage rating; for plant injury at 250 g/ha: 250 g ai/ha
How it was run: as §1

[3] = system: giant foxtail (Setaria faberi); assay: Test G Pre-Emergence Protocol; details: Setaria faberi, pre-emergence, 312 h, evaluated after 13 days; for pest or weed control at 15.625 g/ha: 15.625 g ai/ha; for pest or weed control at 15.625 g/ha / pest or weed control at 250 g/ha: read-out: Foxtail, Giant damage rating (100=total damage to plant; 0=no damage to plant); for pest or weed control at 62.5 g/ha: 62.5 g ai/ha, 100=total damage to plant, 0=no damage to plant, read-out: Foxtail, Giant damage rating; for pest or weed control at 250 g/ha: 250 g ai/ha
How it was run: as §1

[4] = system: ivy-leaved morning glory (Ipomoea hederacea); assay: Test G Pre-Emergence Protocol; details: Ipomoea, pre-emergence, 312 h, evaluated after 13 days; for pest or weed control at 15.625 g/ha: 15.625 g ai/ha; for pest or weed control at 15.625 g/ha / pest or weed control at 250 g/ha: read-out: Morningglory, Ivy-leaved damage rating (100=total damage to plant; 0=no damage to plant); for pest or weed control at 62.5 g/ha: 62.5 g ai/ha, 100=total damage to plant, 0=no damage to plant, read-out: Morningglory, Ivy-leaved damage rating; for pest or weed control at 250 g/ha: 250 g ai/ha
How it was run: as §1

[5] = system: redroot pigweed (Amaranthus retroflexus); assay: Test G Pre-Emergence Protocol; details: Amaranthus retroflexus, pre-emergence, 312 h, evaluated after 13 days; for pest or weed control at 15.625 g/ha: 15.625 g ai/ha; for pest or weed control at 15.625 g/ha / pest or weed control at 250 g/ha: read-out: Pigweed, Redroot damage rating (100=total damage to plant; 0=no damage to plant); for pest or weed control at 62.5 g/ha: 62.5 g ai/ha, 100=total damage to plant, 0=no damage to plant, read-out: Pigweed, Redroot damage rating; for pest or weed control at 250 g/ha: 250 g ai/ha
How it was run: as §1

[6] = system: velvetleaf (Abutilon theophrasti); assay: Test G Pre-Emergence Protocol; details: Abutilon theophrasti, pre-emergence, 312 h, evaluated after 13 days; for pest or weed control at 15.625 g/ha: 15.625 g ai/ha; for pest or weed control at 15.625 g/ha / pest or weed control at 250 g/ha: read-out: Velvetleaf damage rating (100=total damage to plant; 0=no damage to plant); for pest or weed control at 62.5 g/ha: 62.5 g ai/ha, 100=total damage to plant, 0=no damage to plant, read-out: Velvetleaf damage rating; for pest or weed control at 250 g/ha: 250 g ai/ha
How it was run: as §1

[7] = system: barnyardgrass (Echinochloa crus-galli); assay: Test G Post-Emergence Protocol; details: Echinochloa crus-galli, post-emergence, 312 h, read-out: Barnyardgrass damage rating; for pest or weed control at 15.625 g/ha: 15.625 g ai/ha, evaluated after 13 days (100=total damage to plant; 0=no damage to plant); for pest or weed control at 62.5 g/ha: 62.5 g ai/ha; for pest or weed control at 62.5 g/ha / pest or weed control at 250 g/ha: evaluated after 13 days, 100=total damage to plant, 0=no damage to plant; for pest or weed control at 250 g/ha: 250 g ai/ha
How it was run: (§2)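 Values are percent visual injury at 13 days after treatment (0 none, 100 total). Treatment was a post-emergence spray at 15.625, 62.5 or 250 g/ha on 8-day-old pot plants kept at 24/16 °C.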

[8] = system: corn (Zea mays); assay: Test G Post-Emergence Protocol; details: Zea mays, post-emergence, 312 h, read-out: Corn damage rating; for plant injury at 15.625 g/ha: 15.625 g ai/ha, evaluated after 13 days (100=total damage to plant; 0=no damage to plant); for plant injury at 62.5 g/ha: 62.5 g ai/ha; for plant injury at 62.5 g/ha / plant injury at 250 g/ha: evaluated after 13 days, 100=total damage to plant, 0=no damage to plant; for plant injury at 250 g/ha: 250 g ai/ha
How it was run: as §2

[9] = system: giant foxtail (Setaria faberi); assay: Test G Post-Emergence Protocol; details: Setaria faberi, post-emergence, 312 h, read-out: Foxtail, Giant damage rating; for pest or weed control at 15.625 g/ha: 15.625 g ai/ha, evaluated after 13 days (100=total damage to plant; 0=no damage to plant); for pest or weed control at 62.5 g/ha: 62.5 g ai/ha; for pest or weed control at 62.5 g/ha / pest or weed control at 250 g/ha: evaluated after 13 days, 100=total damage to plant, 0=no damage to plant; for pest or weed control at 250 g/ha: 250 g ai/ha
How it was run: as §2

[10] = system: ivy-leaved morning glory (Ipomoea hederacea); assay: Test G Post-Emergence Protocol; details: Ipomoea, post-emergence, 312 h, read-out: Morningglory, Ivy-leaved damage rating; for pest or weed control at 15.625 g/ha: 15.625 g ai/ha, evaluated after 13 days (100=total damage to plant; 0=no damage to plant); for pest or weed control at 62.5 g/ha: 62.5 g ai/ha; for pest or weed control at 62.5 g/ha / pest or weed control at 250 g/ha: evaluated after 13 days, 100=total damage to plant, 0=no damage to plant; for pest or weed control at 250 g/ha: 250 g ai/ha
How it was run: as §2

[11] = system: redroot pigweed (Amaranthus retroflexus); assay: Test G Post-Emergence Protocol; details: Amaranthus retroflexus, post-emergence, 312 h, read-out: Pigweed, Redroot damage rating; for pest or weed control at 15.625 g/ha: 15.625 g ai/ha, evaluated after 13 days (100=total damage to plant; 0=no damage to plant); for pest or weed control at 62.5 g/ha: 62.5 g ai/ha; for pest or weed control at 62.5 g/ha / pest or weed control at 250 g/ha: evaluated after 13 days, 100=total damage to plant, 0=no damage to plant; for pest or weed control at 250 g/ha: 250 g ai/ha
How it was run: as §2

[12] = system: velvetleaf (Abutilon theophrasti); assay: Test G Post-Emergence Protocol; details: Abutilon theophrasti, post-emergence, 312 h, read-out: Velvetleaf damage rating; for pest or weed control at 15.625 g/ha: 15.625 g ai/ha, evaluated after 13 days (100=total damage to plant; 0=no damage to plant); for pest or weed control at 62.5 g/ha: 62.5 g ai/ha; for pest or weed control at 62.5 g/ha / pest or weed control at 250 g/ha: evaluated after 13 days, 100=total damage to plant, 0=no damage to plant; for pest or weed control at 250 g/ha: 250 g ai/ha
How it was run: as §2

CN1C[C@H](c2cc(Cl)cc(C(F)(F)F)c2)[C@@H](C(=O)Nc2ccccc2S(C)(=O)=O)C1=O (racemic) [Compound 1797]
60%: pest or weed control at 62.5 g/ha [1] | pest or weed control at 15.625 g/ha [3] | pest or weed control at 250 g/ha [5] | plant injury at 62.5 g/ha [8] | pest or weed control at 15.625 g/ha [12]
50%: plant injury at 62.5 g/ha [2] | pest or weed control at 15.625 g/ha [9]
80%: pest or weed control at 250 g/ha [1] | pest or weed control at 62.5 g/ha [3] | pest or weed control at 250 g/ha [7] | pest or weed control at 62.5 g/ha [9] | pest or weed control at 250 g/ha [9] | pest or weed control at 250 g/ha [10] | pest or weed control at 250 g/ha [11] | pest or weed control at 62.5 g/ha [12]
70%: plant injury at 250 g/ha [2] | pest or weed control at 250 g/ha [6] | pest or weed control at 62.5 g/ha [7] | plant injury at 250 g/ha [8] | pest or weed control at 62.5 g/ha [11]
20%: pest or weed control at 250 g/ha [4] | pest or weed control at 62.5 g/ha [6]
0%: pest or weed control at 15.625 g/ha [4] | pest or weed control at 15.625 g/ha [5] | pest or weed control at 62.5 g/ha [5] | pest or weed control at 15.625 g/ha [6] | pest or weed control at 15.625 g/ha [10]
10%: plant injury at 15.625 g/ha [2] | pest or weed control at 62.5 g/ha [4] | plant injury at 15.625 g/ha [8]
40%: pest or weed control at 15.625 g/ha [1] | pest or weed control at 62.5 g/ha [10]
90%: pest or weed control at 250 g/ha [3] | pest or weed control at 250 g/ha [12]
30%: pest or weed control at 15.625 g/ha [7] | pest or weed control at 15.625 g/ha [11]

CN1C[C@H](c2ccc(C(F)(F)F)cc2)[C@@H](C(=O)Nc2ccc[n+]([O-])c2F)C1=O (racemic) [Compound 1815]
0%: pest or weed control at 15.625 g/ha [1] | pest or weed control at 62.5 g/ha [1] | pest or weed control at 250 g/ha [1] | plant injury at 15.625 g/ha [2] | plant injury at 62.5 g/ha [2] | plant injury at 250 g/ha [2] | pest or weed control at 15.625 g/ha [3] | pest or weed control at 62.5 g/ha [3] | pest or weed control at 15.625 g/ha [4] | pest or weed control at 62.5 g/ha [4] | pest or weed control at 250 g/ha [4] | pest or weed control at 15.625 g/ha [5] | pest or weed control at 62.5 g/ha [5] | pest or weed control at 250 g/ha [5] | pest or weed control at 15.625 g/ha [6] | pest or weed control at 62.5 g/ha [6] | pest or weed control at 250 g/ha [6] | pest or weed control at 15.625 g/ha [7] | pest or weed control at 62.5 g/ha [7] | pest or weed control at 250 g/ha [7] | plant injury at 15.625 g/ha [8] | plant injury at 62.5 g/ha [8] | plant injury at 250 g/ha [8] | pest or weed control at 15.625 g/ha [9] | pest or weed control at 62.5 g/ha [9] | pest or weed control at 15.625 g/ha [10] | pest or weed control at 62.5 g/ha [10] | pest or weed control at 250 g/ha [10] | pest or weed control at 15.625 g/ha [11] | pest or weed control at 62.5 g/ha [11] | pest or weed control at 250 g/ha [11] | pest or weed control at 15.625 g/ha [12] | pest or weed control at 62.5 g/ha [12] | pest or weed control at 250 g/ha [12]
40%: pest or weed control at 250 g/ha [3]
10%: pest or weed control at 250 g/ha [9]
